# In PubChem BioAssay AID2060620 (Molecular Pharmacology Branch, DTP, NCI, 2025):
# “And” between values parts separate entries of the source, which are not always exact repeats. Equal values may be shown once.
# Test system: 328373-195-R-J1-PDC complex spheroids, viability % test/control
# Test: Anticancer human tumor 328373-195-R-J1-PDC patient-derived head and neck squamous carcinoma cell line growth inhibition [CLK]
# Conditions: for viability, T/C: stronger effect = lower value
# Outline: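 Patient-derived tumor cells grown as complex spheroids with HUVEC endothelial cells and mesenchymal stem cells, treated with drug combinations. Concentrations descend in half-log steps from near clinical Cmax, or from 10 microM if Cmax unknown.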
# [1] = curve of first compound, second compound 0.0316 µM
# [2] = curve of first compound, second compound 0.1 µM
# [3] = curve of first compound, second compound 0.316 µM
# [4] = curve of first compound, second compound 1 µM
# [5] = curve of first compound, second compound 3.16 µM
# [6] = curve of first compound, second compound 10 µM
# [7] = second compound 0.0316 µM, first compound 0.00949 µM
# [8] = second compound 0.0316 µM, first compound 0.03 µM
# [9] = second compound 0.0316 µM, first compound 0.0949 µM
# [10] = second compound 0.0316 µM, first compound 0.3 µM
# [11] = second compound 0.1 µM, first compound 0.00949 µM
# [12] = second compound 0.1 µM, first compound 0.03 µM
# [13] = second compound 0.1 µM, first compound 0.0949 µM
# [14] = second compound 0.1 µM, first compound 0.3 µM
# [15] = second compound 0.316 µM, first compound 0.00949 µM
# [16] = second compound 0.316 µM, first compound 0.03 µM
# [17] = second compound 0.316 µM, first compound 0.0949 µM
# [18] = second compound 0.316 µM, first compound 0.3 µM
# [19] = second compound 1 µM, first compound 0.00949 µM
# [20] = second compound 1 µM, first compound 0.03 µM
# [21] = second compound 1 µM, first compound 0.0949 µM
# [22] = second compound 1 µM, first compound 0.3 µM
# [23] = second compound 3.16 µM, first compound 0.00949 µM
# [24] = second compound 3.16 µM, first compound 0.03 µM
# [25] = second compound 3.16 µM, first compound 0.0949 µM
# [26] = second compound 3.16 µM, first compound 0.3 µM
# [27] = second compound 10 µM, first compound 0.00949 µM
# [28] = second compound 10 µM, first compound 0.03 µM
# [29] = second compound 10 µM, first compound 0.0949 µM
# [30] = second compound 10 µM, first compound 0.3 µM
# 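Also: spheroids exposed to the agents for 7 days.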
compound,measurement,setting,value
C=CC(=O)Nc1cc(Nc2nccc(-c3cn(C)c4ccccc34)n2)c(OC)cc1N(C)CCN(C)C + CNC(=O)c1ccc(Nc2nc(OC3CCCC3)c3c(-c4ccc5nc(C)oc5c4)c[nH]c3n2)c(OC)c1,IC50,[1],39.4 nM
same,IC50,[2],< 0.949 nM
same,IC50,[3],< 0.949 nM
same,IC50,[4],< 0.949 nM
same,IC50,[5],< 0.949 nM
same,IC50,[6],< 0.949 nM
same,"viability, T/C","second compound 0.0316 µM, first compound 0.000949 µM",53.9%
same,"viability, T/C","second compound 0.0316 µM, first compound 0.003 µM",60.2%
same,"viability, T/C",[7],57.1%
same,"viability, T/C",[8],50.1%
same,"viability, T/C",[9],44%
same,"viability, T/C",[10],28.7%
same,"viability, T/C","second compound 0.1 µM, first compound 0.000949 µM",12.7%
same,"viability, T/C","second compound 0.1 µM, first compound 0.003 µM",11.5%
same,"viability, T/C",[11],10%
same,"viability, T/C",[12],10.6%
same,"viability, T/C",[13],6.8%
same,"viability, T/C",[14],4.77%
same,"viability, T/C","second compound 0.316 µM, first compound 0.000949 µM",10.9%
same,"viability, T/C","second compound 0.316 µM, first compound 0.003 µM",9.46%
same,"viability, T/C",[15],9.6%
same,"viability, T/C",[16],11.1%
same,"viability, T/C",[17],7.49%
same,"viability, T/C",[18],5.37%
same,"viability, T/C","second compound 1 µM, first compound 0.000949 µM",9.22%
same,"viability, T/C","second compound 1 µM, first compound 0.003 µM",11.8%
same,"viability, T/C",[19],9.93%
same,"viability, T/C",[20],9.14%
same,"viability, T/C",[21],7.31%
same,"viability, T/C",[22],3.84%
same,"viability, T/C","second compound 3.16 µM, first compound 0.000949 µM",10.8%
same,"viability, T/C","second compound 3.16 µM, first compound 0.003 µM",9.2%
same,"viability, T/C",[23],10.8%
same,"viability, T/C",[24],10.1%
same,"viability, T/C",[25],8.03%
same,"viability, T/C",[26],3.03%
same,"viability, T/C","second compound 10 µM, first compound 0.000949 µM",12%
same,"viability, T/C","second compound 10 µM, first compound 0.003 µM",10.6%
same,"viability, T/C",[27],11.6%
same,"viability, T/C",[28],11.5%
same,"viability, T/C",[29],9.82%
same,"viability, T/C",[30],3.85%
CN1CCN(c2cc(C(=O)Nc3cc4cc(-c5cnn(C)c5)ccc4cn3)ccn2)CC1,"viability, T/C",compound 0.0316 µM,102% [middle of 12 runs]
same,"viability, T/C",compound 0.1 µM,87.1% [middle of 12 runs]
same,"viability, T/C",compound 0.316 µM,30.6% [middle of 12 runs]
same,"viability, T/C",compound 1 µM,2.6% [middle of 12 runs]
same,"viability, T/C",compound 3.16 µM,1.02% [middle of 12 runs]
same,"viability, T/C",compound 10 µM,0.18% [middle of 11 runs]
same,IC50,"compound alone, run of 08/14/2023",209 nM [middle of 12 runs]
NC(=O)C(=Cn1cnc(-c2cc(C(F)(F)F)cc(C(F)(F)F)c2)n1)c1cncnc1 + CN1CCN(c2cc(C(=O)Nc3cc4cc(-c5cnn(C)c5)ccc4cn3)ccn2)CC1,IC50,[1],21.5 nM
same,IC50,[2],12.8 nM
same,IC50,[3],< 9.49 nM
same,IC50,[4],< 9.49 nM
same,IC50,[5],< 9.49 nM
same,IC50,[6],< 9.49 nM
same,"viability, T/C",[7],78.8%
same,"viability, T/C",[8],38.3%
same,"viability, T/C",[9],1.11%
same,"viability, T/C",[10],0.32%
same,"viability, T/C","second compound 0.0316 µM, first compound 0.949 µM",0.14%
same,"viability, T/C","second compound 0.0316 µM, first compound 3 µM",1.38%
same,"viability, T/C",[11],56.7%
same,"viability, T/C",[12],31.2%
same,"viability, T/C",[13],0.33%
same,"viability, T/C",[14],0.56%
same,"viability, T/C","second compound 0.1 µM, first compound 0.949 µM",0.08%
same,"viability, T/C","second compound 0.1 µM, first compound 3 µM",3.54%
same,"viability, T/C",[15],13.3%
same,"viability, T/C",[16],1.99%
same,"viability, T/C",[17],1.27%
same,"viability, T/C",[18],0.99%
same,"viability, T/C","second compound 0.316 µM, first compound 0.949 µM",0.07%
same,"viability, T/C","second compound 0.316 µM, first compound 3 µM",1.88%
same,"viability, T/C",[19],0.09%
same,"viability, T/C",[20],0.12%
same,"viability, T/C",[21],2.09%
same,"viability, T/C",[22],1.38%
same,"viability, T/C","second compound 1 µM, first compound 0.949 µM",2.09%
same,"viability, T/C","second compound 1 µM, first compound 3 µM",0.22%
same,"viability, T/C",[23],0.24%
same,"viability, T/C",[24],1.6%
same,"viability, T/C",[25],0.1%
same,"viability, T/C",[26],1.06%
same,"viability, T/C","second compound 3.16 µM, first compound 0.949 µM",0.12%
same,"viability, T/C","second compound 3.16 µM, first compound 3 µM",1.99%
same,"viability, T/C",[27],1.81%
same,"viability, T/C",[28],0.08%
same,"viability, T/C",[29],0.93%
same,"viability, T/C",[30],0.14%
same,"viability, T/C","second compound 10 µM, first compound 0.949 µM",1.29%
same,"viability, T/C","second compound 10 µM, first compound 3 µM",0.16%
COC1C=CCC(C)C(C)S(=O)(=O)NC(=O)c2ccc3c(c2)N(CC2CCC21)CC1(CCCc2cc(Cl)ccc21)CO3 (centres undefined),"viability, T/C",compound 0.0316 µM,93.3% and 98.1%
same,"viability, T/C",compound 0.1 µM,90.6% and 96.7%
same,"viability, T/C",compound 0.316 µM,101% and 103%
same,"viability, T/C",compound 1 µM,96.7% and 93.2%
same,"viability, T/C",compound 3.16 µM,77.2% and 69.3%
same,IC50,curve of compound,8470 nM and 4400 nM
CCc1c2c(nc3ccc(O)cc13)-c1cc3c(c(=O)n1C2)COC(=O)[C@]3(O)CC + CNC(=O)c1ccc(Nc2nc(OC3CCCC3)c3c(-c4ccc5nc(C)oc5c4)c[nH]c3n2)c(OC)c1,IC50,[1],< 3.16 nM
same,IC50,[2],< 3.16 nM
same,IC50,[3],< 3.16 nM
same,IC50,[4],< 3.16 nM
same,IC50,[5],< 3.16 nM
same,IC50,[6],< 3.16 nM
same,"viability, T/C","second compound 0.0316 µM, first compound 0.00316 µM",7.71%
same,"viability, T/C","second compound 0.0316 µM, first compound 0.01 µM",1.63%
same,"viability, T/C","second compound 0.0316 µM, first compound 0.0316 µM",2.84%
same,"viability, T/C","second compound 0.0316 µM, first compound 0.1 µM",0.67%
same,"viability, T/C","second compound 0.0316 µM, first compound 0.316 µM",0.38%
same,"viability, T/C","second compound 0.0316 µM, first compound 1 µM",0.09%
same,"viability, T/C","second compound 0.1 µM, first compound 0.00316 µM",7.73%
same,"viability, T/C","second compound 0.1 µM, first compound 0.01 µM",1.04%
same,"viability, T/C","second compound 0.1 µM, first compound 0.0316 µM",2.54%
same,"viability, T/C","second compound 0.1 µM, first compound 0.1 µM",0.41%
same,"viability, T/C","second compound 0.1 µM, first compound 0.316 µM",1.87%
same,"viability, T/C","second compound 0.1 µM, first compound 1 µM",2.57%
same,"viability, T/C","second compound 0.316 µM, first compound 0.00316 µM",7.15%
same,"viability, T/C","second compound 0.316 µM, first compound 0.01 µM",3.14%
same,"viability, T/C","second compound 0.316 µM, first compound 0.0316 µM",1.9%
same,"viability, T/C","second compound 0.316 µM, first compound 0.1 µM",0.39%
same,"viability, T/C","second compound 0.316 µM, first compound 0.316 µM",1.85%
same,"viability, T/C","second compound 0.316 µM, first compound 1 µM",0.68%
same,"viability, T/C","second compound 1 µM, first compound 0.00316 µM",5.68%
same,"viability, T/C","second compound 1 µM, first compound 0.01 µM",1.49%
same,"viability, T/C","second compound 1 µM, first compound 0.0316 µM",1.06%
same,"viability, T/C","second compound 1 µM, first compound 0.1 µM",0.86%
same,"viability, T/C","second compound 1 µM, first compound 0.316 µM",0.2%
same,"viability, T/C","second compound 1 µM, first compound 1 µM",1.91%
same,"viability, T/C","second compound 3.16 µM, first compound 0.00316 µM",9.03%
same,"viability, T/C","second compound 3.16 µM, first compound 0.01 µM",2.69%
same,"viability, T/C","second compound 3.16 µM, first compound 0.0316 µM",1.66%
same,"viability, T/C","second compound 3.16 µM, first compound 0.1 µM",0.35%
same,"viability, T/C","second compound 3.16 µM, first compound 0.316 µM",1.13%
same,"viability, T/C","second compound 3.16 µM, first compound 1 µM",1.82%
same,"viability, T/C","second compound 10 µM, first compound 0.00316 µM",10.2%
same,"viability, T/C","second compound 10 µM, first compound 0.01 µM",1.94%
same,"viability, T/C","second compound 10 µM, first compound 0.0316 µM",1.92%
same,"viability, T/C","second compound 10 µM, first compound 0.1 µM",0.95%
same,"viability, T/C","second compound 10 µM, first compound 0.316 µM",2.93%
same,"viability, T/C","second compound 10 µM, first compound 1 µM",1.05%
